The results in this text go back to paper PMC8976029, “Gut microbiota production of trimethyl-5-aminovaleric acid reduces fatty acid oxidation and accelerates cardiac hypertrophy” (Nature Communications, 2022).

The target of the assay is T1, OCTN2 (hOCTN2) (Homo sapiens, UniProt O76082).
T1 construct: gene SLC22A5; human OCTN2 stably overexpressed in MDCK cells; no tag stated
T1 sequence (O76082 1-557): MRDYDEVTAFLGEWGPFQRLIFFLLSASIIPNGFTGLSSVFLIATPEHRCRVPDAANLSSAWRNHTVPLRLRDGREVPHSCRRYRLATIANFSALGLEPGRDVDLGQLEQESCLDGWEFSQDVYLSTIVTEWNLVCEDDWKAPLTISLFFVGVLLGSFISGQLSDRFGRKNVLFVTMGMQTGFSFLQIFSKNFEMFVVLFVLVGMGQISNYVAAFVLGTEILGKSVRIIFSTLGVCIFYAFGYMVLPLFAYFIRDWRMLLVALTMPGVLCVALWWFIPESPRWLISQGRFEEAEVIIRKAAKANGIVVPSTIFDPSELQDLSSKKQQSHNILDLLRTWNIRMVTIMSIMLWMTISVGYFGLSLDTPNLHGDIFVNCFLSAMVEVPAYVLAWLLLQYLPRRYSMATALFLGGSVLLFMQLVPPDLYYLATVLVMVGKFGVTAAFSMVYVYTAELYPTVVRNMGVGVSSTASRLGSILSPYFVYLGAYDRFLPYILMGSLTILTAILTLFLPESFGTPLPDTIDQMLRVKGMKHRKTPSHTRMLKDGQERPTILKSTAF
In words: d9-carnitine uptake inhibition, LC-MS/MS. The assay is classed as cell-based. From the text: d9-carnitine uptake inhibition, LC-MS/MS on OCTN2 (hOCTN2) | TMAVA reduced the uptake of d9-carnitine in a concentration-dependent manner with an IC50 of […]

One may read the IC50 as the concentration needed to halve the response being measured. A higher IC50 goes with weaker potency. On to `C[N+](C)(C)CCCCC(=O)O` [TMAVA, N,N,N-trimethyl-5-aminovaleric acid], for which the IC50 amounted to 4.15 µM. That is a single-digit micromolar value.
